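Method: 48-hour compound exposure of cells in 96-well plates, five concentrations, linear interpolation of endpoints. Abbreviation: GI50, concentration required for 50% inhibition of growth.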 The source made the active and inactive calls. No stated cut-off is given here; in the data, active = GI50 up to about 1.1 µM and inactive = higher.
What was measured:
Assay in all cases: NCI-60 cell line screen, 48 h
UO-31 = tested on: UO-31
SF-268 = tested on: SF-268
OVCAR-3 = tested on: OVCAR-3
K562 = tested on: K562
PC-3 = tested on: PC-3
HOP-62 = tested on: HOP-62
EKVX = tested on: EKVX
SNB-19 = tested on: SNB-19
M14 = tested on: M14
HOP-92 = tested on: HOP-92
MDA-MB-435 = tested on: MDA-MB-435
HCC 2998 = tested on: HCC 2998
U-251 = tested on: U-251
786-0 = tested on: 786-0
NCI-H23 = tested on: NCI-H23
NCI-H522 = tested on: NCI-H522
HT-29 = tested on: HT-29
SF-539 = tested on: SF-539
MDA-MB-231 = tested on: MDA-MB-231
DU-145 = tested on: DU-145

Measured: GI50

CC(=N\N)/C(C)=N/N=C(C)/C(C)=N/N=C(C)/C(C)=N/N
inactive: UO-31 > 100 µM | SF-268 > 100 µM | OVCAR-3 > 100 µM | K562 > 100 µM | PC-3 > 100 µM | HOP-62 > 100 µM | EKVX > 100 µM | SNB-19 > 100 µM | M14 > 100 µM | HOP-92 > 100 µM | MDA-MB-435 > 100 µM | HCC 2998 > 100 µM | U-251 > 100 µM | 786-0 > 100 µM | NCI-H23 > 100 µM | NCI-H522 > 100 µM | HT-29 > 100 µM | SF-539 > 100 µM | MDA-MB-231 > 100 µM | DU-145 > 100 µM

CCOC(=O)Cn1c(=O)c2nc(SC)sc2n(-c2ccc(C)cc2)c1=S
inactive: UO-31 48.6 µM | SF-268 30.1 µM | OVCAR-3 50.4 µM | K562 > 100 µM | PC-3 38.1 µM | HOP-62 20 µM | EKVX 74.3 µM | SNB-19 20.4 µM | M14 > 61.7 µM | HOP-92 21.6 µM | MDA-MB-435 99.5 µM | HCC 2998 > 56.9 µM | U-251 24.5 µM | 786-0 18.1 µM | NCI-H23 > 49 µM | NCI-H522 79.6 µM | HT-29 > 87.3 µM | SF-539 36.1 µM | MDA-MB-231 52.7 µM | DU-145 98.4 µM

From ChEMBL document CHEMBL1201862, “PubChem BioAssay data set” (2004)
